Experimental findings from patent publication US20080220499A1, “NOVEL PROTEASE FOR INDUSTRIAL APPLICATIONS” (priority 2006, published 2008) are described below.

Common to all, as to assay type: biochemical
In assay [1] the test system is protease isolated from Pseudomonas aeruginosa MCM B-327. The experiment in a line: Effect of organic solvents on protease activity. As to conditions: for Enzyme activity: organic solvent 50% v/v, 30 min of incubation, Tris-HCl pH 8.0, 37° C., None = 42.77; for inhibition of the enzyme: 50% v/v, after 30 min of incubation. As for the experimental part: The cell free supernatant was salt precipitated and used for this study in Tris-HCl buffer, pH 8.0 at 37° C.

For assay [2] the test system is unchanged. The experiment in a line: Effect of metal ions on protease activity. As to conditions: Tris-HCl pH 8.0, 37° C.; for Enzyme activity: None = 42.77. As for the experimental part:
This example illustrates the effect of metal ions on activity of the protease isolated from Pseudomonas aeruginosa MCM B-327 when grown in soybean meal−tryptone (HiMedia) medium. The cell free supernatant was salt precipitated and used for this study in Tris-HCl buffer, pH 8.0 at 37° C.

The test system is the same in assay [3]. The experiment in a line: Effect of inhibitors on protease activity. As to conditions: for Enzyme activity: incubated 30 min, None = 42.77. As for the experimental part:
This example illustrates the effect of inhibitors on activity of the protease isolated from Pseudomonas aeruginosa MCM B-327 when grown in soybean meal−tryptone (HiMedia) medium. The cell free supernatant was salt precipitated and used for this study in Tris-HCl buffer, pH 8.0 at 37° C. The enzyme and the inhibitor were incubated for 30 min prior to enzyme assay.

For assay [4] the test system is unchanged. In words: Effect of ingredients of detergents on protease activity. As to conditions: for Enzyme activity: incubated 30 min prior to assay, Tris-HCl pH 8.0, 37° C., None = 42.77; for effect of surfactant on protease activity (in words): 1%. As for the experimental part:
This example illustrates the effect of ingredients of detergents on activity of the protease isolated from Pseudomonas aeruginosa MCM B-327 when grown in soybean meal−tryptone (HiMedia) medium. The cell free supernatant was salt precipitated and used for this study in Tris-HCl buffer, pH 8.0 at 37° C. The enzyme and ingredients of detergent were incubated for 30 min prior to enzyme assay. The enzyme was stable in detergent ingredients while 20% inhibited by SDS.

Where [5] appears, read: inhibitor 1 mM, Tris-HCl pH 8.0, 37° C.

In assay [1], `CCCCC=O` [1-pentanone] displayed an Enzyme activity of 11.54 U/mg precipitate. In assay [1], `CC(C)=O` [Acetone] returned an Enzyme activity of 13.68 U/mg precipitate.

As to `c1ccccc1` [Benzene], the Enzyme activity in assay [1] worked out at 11.54 U/mg precipitate. For the compound `[Ca+2].[Cl-].[Cl-]` [CaCl2], the “effect of metal ion on enzyme activity (in words)” value (from here on “effect of metal ion”) in assay [2] is listed as “resistant to inhibition”. Besides, the Enzyme activity in assay [2] (metal ion at 5 mM) came out at 42.34 U/mg precipitate. Turning to `O=S(=O)([O-])[O-].[Cu+2]` [CuSO4], the “effect of metal ion” value in assay [2] is reported as “affected the enzyme activity considerably”. Further, the Enzyme activity in assay [2] (metal ion at 5 mM) came out at 10.69 U/mg precipitate. On to `O[C@@H](CS)[C@@H](O)CS` [DTT, dithiothretol], for which the “inhibition of the enzyme (in words)” value in assay [3] (1 & 5 mM) is “completely inhibited”. For the same compound, the Enzyme activity in assay [3] (setting [5]) and in assay [3] (inhibitor 5 mM) was 0 U/mg precipitate throughout. On to `O=C(O)CN(CCN(CC(=O)O)CC(=O)O)CC(=O)O` [EDTA, Ethylenediamine tetra acetic acid], for which the values for the Enzyme activity in assay [3] (inhibitor 2 mM) and in assay [3] (inhibitor 5 mM) were 32.93 U/mg precipitate and 30.36 U/mg precipitate, respectively. In the case of `CCO` [Ethanol], in assay [1], the “inhibition of the enzyme” value stood at 91% and the Enzyme activity is reported as 3.84 U/mg precipitate.

In the case of `O=S(=O)([O-])[O-].[Fe+2]` [FeSO4], in assay [2], the “effect of metal ion” value is given as “resistant to inhibition”. The compound also yielded an Enzyme activity in assay [2] (metal ion at 5 mM) of 37.64 U/mg precipitate.

Take `[Cl][Hg][Cl]` [HgCl2]: the Enzyme activity in assay [2] (HgCl2 at 1 mM) is reported as 9.83 U/mg precipitate; in assay [2] (metal ion at 5 mM), 6.84 U/mg precipitate. In assay [2], the “effect of metal ion” value was “affected the enzyme activity considerably”. For the compound `NC(=O)CI` [Iodoacetamide], the Enzyme activity in assay [3] (setting [5]) was found to be 44.05 U/mg precipitate; in assay [3] (inhibitor 5 mM), 43.62 U/mg precipitate. Compound `CC(C)CC(C)(C)C` [Isooctane] returned an Enzyme activity in assay [1] of 28.65 U/mg precipitate.

In assay [1], `CO` [Methanol] registered an Enzyme activity of 14.11 U/mg precipitate. Consider `O=S(=O)([O-])[O-].[Mg+2]` [MgSO4], for which the “effect of metal ion” value in assay [2] was “resistant to inhibition”. In assay [2] (metal ion at 5 mM), this compound had an Enzyme activity of 42.77 U/mg precipitate.

Turning to `O=S(=O)([O-])[O-].[Mn+2]` [MnSO4], the “effect of metal ion” value in assay [2] is on record as “resistant to inhibition”. The Enzyme activity in assay [2] (metal ion at 5 mM) turned out to be 37.21 U/mg precipitate. Taken in the same sequence, the figures for `[Cl-].[Na+]` [NaCl] were “resistant to inhibition” and 41.06 U/mg precipitate. Regarding `O=S(=O)(F)Cc1ccccc1` [PMSF, Phenyl methyl sulphonyl fluoride], the Enzyme activity in assay [3] (setting [5]) is on record as 40.20 U/mg precipitate; in assay [3] (inhibitor 5 mM), 31.65 U/mg precipitate. As to `CCCCCCCCCCCCOS(=O)(=O)[O-].[Na+]` [SDS], in assay [4] (detergent ingredient 1%, 30 min), the “inhibition of the enzyme” value came out at 20%. The Enzyme activity in assay [4] (detergent ingredient 1%) turned out to be 34.21 U/mg precipitate.

`O=P(O)(O)OP(=O)(O)OP(=O)(O)O` [Sodium tripolyphosphate] gave an Enzyme activity in assay [4] (detergent ingredient 1%) of 44.05 U/mg precipitate. `Cc1ccccc1` [Toluene]: in assay [1], the “inhibition of the enzyme” value came out at 51% and the Enzyme activity is listed as 20.95 U/mg precipitate. Consider `CCCCCCCC/C=C\CCCCCCCC(=O)OCCOCC(OCCO)C1OCC(OCCO)C1OCCO` (centres unmarked) [Tween 80], for which the “effect of surfactant on protease activity (in words)” value in assay [4] (30 min) is reported as “no inhibitory effect”. Moreover, in assay [4] (detergent ingredient 1%), the Enzyme activity is listed as 43.62 U/mg precipitate.

As for `O=S(=O)([O-])[O-].[Zn+2]` [ZnSO4], the “effect of metal ion” value in assay [2] is recorded as “affected the enzyme activity considerably”. In addition, the Enzyme activity in assay [2] (metal ion at 5 mM) is reported as 12.40 U/mg precipitate. In assay [1], `CCCCCC` [n-hexane] displayed an Enzyme activity of 26.94 U/mg precipitate. Turning to Triton X100, the “effect of surfactant on protease activity (in words)” value in assay [4] (30 min) is given as “no inhibitory effect”. In assay [4] (detergent ingredient 1%), this compound came in with an Enzyme activity of 41.49 U/mg precipitate. In assay [1], m-p-xylene displayed an Enzyme activity of 28.65 U/mg precipitate.
